Tests used:
[1] = molecular target: T1, Horseradish peroxidase (HRP) (Armoracia rusticana, UniProt P00433); assay: Mediation to horseradish peroxidase, rotating ring-disk voltammetry; type: biochemical; details: mediator 0.5 mM, HRP 280 U, ring poised at -100 mV, disk scanned -100 to -600 mV
T1 sequence (P00433 31-338): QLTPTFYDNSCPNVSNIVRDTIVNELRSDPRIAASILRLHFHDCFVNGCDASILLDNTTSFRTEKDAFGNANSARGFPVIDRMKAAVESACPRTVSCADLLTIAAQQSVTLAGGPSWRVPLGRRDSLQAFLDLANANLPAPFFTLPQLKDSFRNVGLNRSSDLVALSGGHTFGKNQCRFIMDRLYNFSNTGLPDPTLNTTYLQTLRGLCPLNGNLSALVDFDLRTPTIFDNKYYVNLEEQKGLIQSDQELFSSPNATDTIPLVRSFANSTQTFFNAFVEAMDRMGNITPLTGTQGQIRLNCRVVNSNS
Description: (§1) The phosphate buffer solution (PBS) of 0.15 M phosphate (with 0.2 M sodium chloride as supporting electrolyte), pH 7.0, containing 0.1 M glucose was prepared using Analar reagents from Merck BDH. The solution was stored overnight at 4° C. prior to use to allow equilibration of the α- and β-anomers. Glucose oxidase (EC 1.1.3.4 from Aspergillus niger) was supplied by Sturge Enzymes. Horseradish peroxidase was obtained from Biozyme.
The ability of the β-cyclodextrin adduct of the manganese complex Compound 10 to mediate with […] (HRP) was assessed by comparing it with 1,1'-dimethylferrocene ethanolamine using rotating ring-disk voltammetry according to a literature method (Anal. Chem., 62 (1990) 2429). Experiments were carded out using a glass cell (14 ml capacity) containing a platinum counter electrode with a calomel reference electrode. A gold-gold ring-disk electrode, rotated at 4 Hz, was immersed in a phosphate-buffered saline solution of the mediator (0.5 mM) containing HRP (280 U). The catalytic ring current was then measured while poising the ring electrode at -100 mV and scanning the disk electrode from -100 to -600mV to generate hydrogen peroxide.

[2] = Cyclic voltammetry of the complexes in aqueous buffer (PBS); type: physicochemical; details: for EOX: arene chromium tricarbonyl complexes, aqueous electrochemistry; for potential of the voltammetric wave: manganese complexes in aqueous buffer (PBS)
[3] = Cyclic voltammetry of screen-printed carbon electrodes containing the complex; type: physicochemical; details: for oxidation wave potential: screen-printed carbon electrodes, scan rates 50 and 100 mV/s
Description: (§2) Screen-printed electrodes incorporating Compound 6 were produced from an organic carbon ink containing the chromium complex at a level of 3.5 mg/g ink. FIG. 2a comprises cyclic voltammograms of electrodes containing the chromium complex Compound 6 at 50 mV/s and 0.2 μA/cm in PBS, and FIG. 2b the catalytic wave upon addition of 100 μl glucose oxidase recorded at 20 mV/s and 0.5 μA/cm. […] From FIG. 2b, it is seen that GOD mediation occurs on applying mixtures of enzyme and glucose to the electrodes, with small catalytic currents of about 1 μA.
Further work with the dithiocarbamate complexes Compounds 10 to 12 was carried out with screen-printed carbon electrodes produced from carbon inks mixed with each of the complexes. […] Catalytic currents in the region of 4 μA were recorded in the presence of GOD and glucose. Variable but increased currents of up to 29 μA were obtained with 0.1 M glucose when the enzyme was confined in the carbon electrode with the mediator, see FIG. 9.

glucose oxidase (GOD) [4] = molecular target: T2, glucose oxidase (GOD) (Aspergillus niger, UniProt P13006); assay: Mediation to glucose oxidase with screen-printed carbon electrodes containing the mediator; type: biochemical
T2 sequence (P13006 17-605): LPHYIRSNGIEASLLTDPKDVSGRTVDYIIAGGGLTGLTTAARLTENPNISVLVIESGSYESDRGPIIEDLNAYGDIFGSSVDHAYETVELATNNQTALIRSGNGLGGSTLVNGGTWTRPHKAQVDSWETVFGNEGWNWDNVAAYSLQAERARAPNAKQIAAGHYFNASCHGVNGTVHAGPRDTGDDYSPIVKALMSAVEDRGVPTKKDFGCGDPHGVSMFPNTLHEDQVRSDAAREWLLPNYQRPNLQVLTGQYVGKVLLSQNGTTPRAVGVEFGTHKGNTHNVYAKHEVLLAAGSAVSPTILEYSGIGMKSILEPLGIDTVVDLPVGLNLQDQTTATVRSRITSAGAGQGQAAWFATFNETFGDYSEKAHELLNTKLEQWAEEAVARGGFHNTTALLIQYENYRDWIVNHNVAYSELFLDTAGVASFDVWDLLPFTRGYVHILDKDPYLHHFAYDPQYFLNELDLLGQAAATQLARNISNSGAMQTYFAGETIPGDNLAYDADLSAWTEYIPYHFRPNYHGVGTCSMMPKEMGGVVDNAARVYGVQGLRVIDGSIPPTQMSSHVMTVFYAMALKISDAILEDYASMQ
Description: as §1, §2
Further work with the dithiocarbamate complexes Compounds 10 to 12 was carried out with screen-printed carbon electrodes produced from carbon inks mixed with each of the complexes. […] Catalytic currents in the region of 4 μA were recorded in the presence of GOD and glucose. […]

glucose oxidase (GOD) [5] = molecular target: T2, glucose oxidase (GOD); assay: Mediation to glucose oxidase in solution (catalytic wave, enzyme titration in 0.1 M glucose/PBS); type: biochemical
[6] = cited from earlier work
[7] = Solubility / stability in aqueous buffer; details: aqueous buffer / water
[8] = pH 7
glucose oxidase (GOD) [9] = molecular target: T2, glucose oxidase (GOD); details: literature value (Anal. Chem., 56 (1984) 667); cited from earlier work
[10] = complex in aqueous buffer (PBS)
[11] = 0.5 mM in PBS with added β-cd (0.5-5.0 mM)

Compound: 1,1'-dimethylferrocene ethanolamine [reference compound]
- catalytic ring current, comparison of mediators [1]: identical catalytic currents

Compound: CN(C)c1ccccc1.[C-]#[O+].[C-]#[O+].[C-]#[O+].[Cr] [Compound 1]
- EOX [2]: +250 mV

Compound: OCCN(CCO)c1ccccc1.[C-]#[O+].[C-]#[O+].[C-]#[O+].[Cr] [Compound 3]
- EOX [2]: +250 mV

Compound: Nc1ccc(N)cc1.[C-]#[O+].[C-]#[O+].[C-]#[O+].[Cr] [Compound 4]
- EOX [2]: +135 mV

Compound: COc1ccc(N)c(OC)c1.[C-]#[O+].[C-]#[O+].[C-]#[O+].[Cr] [Compound 5]
- EOX [2]: +170 mV

Compound: Cc1c(C)c(N)c(C)c(C)c1N.[C-]#[O+].[C-]#[O+].[C-]#[O+].[Cr] [Compound 6]
- EOX [2]: +40 mV
- reversibility of the voltammetric wave [2, 10]: reversible wave
- mid-point potential ([3]; screen-printed electrodes, 3.5 mg complex/g ink, PBS applied): -15 mV
- reversibility of the voltammetric wave ([3]; screen-printed electrodes, PBS applied): reversible wave
- catalytic current (glucose oxidase (GOD) [4]; mixtures of GOD and glucose applied to screen-printed electrodes containing the mediator): about 1 μA

Compound: Nc1cc(N)cc(N)c1.[C-]#[O+].[C-]#[O+].[C-]#[O+].[Cr] [Compound 7]
- EOX [2]: +50 mV

Compound: Cc1cc[cH-]c1.[C-]#[O+].[C-]#[O+].[C-]#[O+].[Mn] [Compound 8, (methylcyclopentadienyl)manganese tricarbonyl]
- second order rate coefficient for the oxidation of reduced GOD (glucose oxidase (GOD) [5]; 0 to 25 μl GOD titrated into mediator in 0.1 M glucose/PBS, from icat versus [GOD]^1/2): 210000 M⁻¹ s⁻¹

Compound: [C-]#[O+].[C-]#[O+].[C-]#[O+].[Mn].[c-]1[c-][c-][cH-][c-]1 [Cyclopentadienyl manganese tricarbonyl]
- oxidation potential, more positive than ferrocene ([6]; in acetonitrile, relative to ferrocene): ~1.2 V

Compound: [C-]#[O+].[C-]#[O+].[C-]#[O+].[Cr].c1ccccc1 [benzene chromium tricarbonyl]
- half wave potential ([6]; in dichloromethane): +710 mV vs SCE
- aqueous solubility (in words) [7]: negligible solubility in buffer

Compound: [MeCpMn(NO)(CN)2 ]Na [Compound 13]
- reversibility of the voltammetric wave [2, 10]: reversible wave
- potential of the voltammetric wave [2]: +440 mV

Compound: [MeCpMn(NO)(CO)2 ]PF6 [Compound 9]
- oxidation potential of the species formed by decomposition ([2]; aqueous buffer, irreversibly oxidized): +230 mV

Compound: [MeCpMn(NO)(S2 CNEt2)] [Compound 11]
- oxidation wave potential [3]: +300 mV

Compound: [MeCpMn(NO)(S2 CNMe2)] [Compound 10]
- oxidation wave potential [3]: +240 mV
- catalytic current (glucose oxidase (GOD) [4]; 0.1 M glucose, enzyme confined in the carbon electrode with the mediator): up to 29 μA

Compound: [MeCpMn(NO)(S2 CNMe2)]β-cyclodextrin
- ΔEp ([2]; 0.1 M glucose/PBS): 70 mV
- reversibility of the voltammetric wave [2, 10]: reversible wave
- potential of the voltammetric wave [2]: +255 mV
- icat (catalytic wave) (glucose oxidase (GOD) [5]; upon addition of GOD and glucose, 0.1 M glucose/PBS): 9.7 μA
- catalytic ring current, comparison of mediators [1]: identical catalytic currents
- solubility in PBS [8]: at least 0.5 mM

Compound: [MeCpMn(NO)(bipy)]PF6 [Compound 14]
- reversibility of the voltammetric wave [2, 10]: irreversible electrochemistry
- potential of the voltammetric wave [2]: about +600 mV

Compound: [MeCpMn(NO)(phen)]PF6 [Compound 15]
- reversibility of the voltammetric wave [2, 10]: irreversible electrochemistry
- potential of the voltammetric wave [2]: about +600 mV

Compound: [MeCpMn(NO){(SCCN)2 }][NEt4 ] [Compound 16]
- E1/2 [2, 11]: +5 mV
- ΔEp [2, 11]: 65 mV
- reversibility of the voltammetric wave ([2]; 0.5 mM in buffer with added β-cd (0.5-5.0 mM)): reversible wave
- Eox ([2]; 0.6 mM in PBS, 50 mV/s): -25 mV

Compound: ferrocene monocarboxylic acid
- second order rate constant for the oxidation of reduced GOD (glucose oxidase (GOD) [9]): 200000 M⁻¹ s⁻¹
